Experimental findings from ChEMBL document CHEMBL1147955, “Novel pyridyl-fused 3-amino chroman derivatives with dual action at serotonin transporter and 5-HT1A receptor” (Bioorg Med Chem Lett, 2007) are described below.

The target in test [1] is Sodium-dependent serotonin transporter (Rattus norvegicus, UniProt P31652). As to the kind of experiment: Displacement of [3H]paroxetine from 5HT reuptake site of rat cortical 5HTT.
Test [2] addresses T1, Adrenergic receptor alpha-1 (Rattus norvegicus, UniProt P15823+P23944+P43140).
T1 sequence (P15823 whole entry): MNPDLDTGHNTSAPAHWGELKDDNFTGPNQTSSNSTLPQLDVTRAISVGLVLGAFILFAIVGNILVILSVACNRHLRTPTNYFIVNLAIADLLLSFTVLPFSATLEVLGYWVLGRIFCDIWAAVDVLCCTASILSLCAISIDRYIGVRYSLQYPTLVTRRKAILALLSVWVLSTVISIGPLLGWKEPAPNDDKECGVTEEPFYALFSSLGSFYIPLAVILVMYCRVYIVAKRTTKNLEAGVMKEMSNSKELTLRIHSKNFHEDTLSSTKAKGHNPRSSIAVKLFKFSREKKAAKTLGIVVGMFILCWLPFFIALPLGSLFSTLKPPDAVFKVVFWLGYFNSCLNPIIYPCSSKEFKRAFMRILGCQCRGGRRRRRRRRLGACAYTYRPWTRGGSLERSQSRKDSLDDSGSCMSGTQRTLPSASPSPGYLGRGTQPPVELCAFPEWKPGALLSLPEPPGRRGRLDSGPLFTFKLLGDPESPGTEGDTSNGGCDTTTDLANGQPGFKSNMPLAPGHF
T1 sequence (P23944 whole entry): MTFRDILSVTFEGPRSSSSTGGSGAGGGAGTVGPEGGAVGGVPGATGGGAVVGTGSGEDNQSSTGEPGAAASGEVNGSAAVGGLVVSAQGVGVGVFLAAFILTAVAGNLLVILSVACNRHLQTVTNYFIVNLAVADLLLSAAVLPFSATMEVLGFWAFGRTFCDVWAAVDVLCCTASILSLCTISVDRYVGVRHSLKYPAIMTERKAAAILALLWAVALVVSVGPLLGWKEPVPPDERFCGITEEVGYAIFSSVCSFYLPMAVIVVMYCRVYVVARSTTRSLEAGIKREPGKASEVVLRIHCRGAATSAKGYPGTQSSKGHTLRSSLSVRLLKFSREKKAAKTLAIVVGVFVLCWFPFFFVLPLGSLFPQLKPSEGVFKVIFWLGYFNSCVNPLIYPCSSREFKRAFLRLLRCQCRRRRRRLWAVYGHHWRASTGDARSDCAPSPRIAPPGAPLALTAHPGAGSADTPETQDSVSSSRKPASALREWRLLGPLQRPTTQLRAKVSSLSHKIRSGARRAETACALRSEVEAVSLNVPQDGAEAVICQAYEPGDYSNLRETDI
T1 sequence (P43140 whole entry): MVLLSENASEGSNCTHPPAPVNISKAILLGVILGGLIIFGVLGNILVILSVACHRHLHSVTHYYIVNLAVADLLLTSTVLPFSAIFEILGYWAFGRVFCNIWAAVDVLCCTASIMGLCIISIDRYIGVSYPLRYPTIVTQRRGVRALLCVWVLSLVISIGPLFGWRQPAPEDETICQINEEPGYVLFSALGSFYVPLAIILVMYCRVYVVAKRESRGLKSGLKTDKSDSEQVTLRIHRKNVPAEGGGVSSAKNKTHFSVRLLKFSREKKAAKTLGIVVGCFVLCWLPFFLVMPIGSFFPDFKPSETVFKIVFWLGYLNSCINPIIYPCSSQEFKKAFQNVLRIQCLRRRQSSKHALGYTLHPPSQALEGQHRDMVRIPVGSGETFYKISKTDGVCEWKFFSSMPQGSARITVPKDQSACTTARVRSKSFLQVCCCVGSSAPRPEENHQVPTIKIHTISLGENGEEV
Description: Displacement of [3H]prazosin from adrenergic alpha-1 receptor in rat cortical membranes at 1 uM. It counts as cell membranes, Membrane. In general terms: Displacement assays read how much labelled ligand stays bound in the presence of the test substance.

Test [3] has as its target T2, 5-hydroxytryptamine receptor 1A (Homo sapiens, UniProt P08908).
T2 sequence (P08908 whole entry): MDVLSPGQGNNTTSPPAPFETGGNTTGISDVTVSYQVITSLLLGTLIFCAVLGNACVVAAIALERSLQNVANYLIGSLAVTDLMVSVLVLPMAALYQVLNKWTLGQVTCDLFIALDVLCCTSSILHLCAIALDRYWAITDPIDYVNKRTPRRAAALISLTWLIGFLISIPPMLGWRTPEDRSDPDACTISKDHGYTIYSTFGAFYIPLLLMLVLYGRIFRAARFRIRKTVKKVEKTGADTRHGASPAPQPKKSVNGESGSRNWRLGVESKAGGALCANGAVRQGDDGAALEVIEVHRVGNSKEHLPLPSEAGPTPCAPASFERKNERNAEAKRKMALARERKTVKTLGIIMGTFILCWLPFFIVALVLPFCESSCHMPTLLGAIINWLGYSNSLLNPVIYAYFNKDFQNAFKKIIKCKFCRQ
Description: Displacement of [3H]8-OH-DPAT from human 5HT1A receptor expressed in CHO cells. The format is cell-based.

For test [4], the target named is T1, Adrenergic receptor alpha-1. As to the kind of experiment: Displacement of [3H]prazosin from adrenergic alpha-1 receptor in rat cortical membranes. The format is cell membranes, Membrane.
Test [5] concerns the target T2, 5-hydroxytryptamine receptor 1A. As to the kind of experiment: Displacement of [3H]8-OH-DPAT from human 5HT1A receptor expressed in CHO cells at 1 uM. The format is cell-based.
Test [6] has the same target. As to the kind of experiment: Agonist activity at human 5HT1A receptor expressed in CHO membrane assessed as stimulation of [35S]GTP-gamma-S binding. It counts as functional, cell membranes. For orientation: GTPγS is a poorly hydrolysed GTP analogue; its binding reports G protein activation.
In test [7] the target is T3, 5-hydroxytryptamine receptor 1A (Homo sapiens) (UniProt P08908).
T3 sequence (whole entry): T2 sequence (P08908 whole entry)
Description: Agonist activity at human 5HT1A receptor expressed in CHO membrane assessed as stimulation of [35S]GTPgammaS binding relative to 5HT. It counts as functional, cell membranes.

Sodium-dependent serotonin transporter, sequence (P31652 whole entry): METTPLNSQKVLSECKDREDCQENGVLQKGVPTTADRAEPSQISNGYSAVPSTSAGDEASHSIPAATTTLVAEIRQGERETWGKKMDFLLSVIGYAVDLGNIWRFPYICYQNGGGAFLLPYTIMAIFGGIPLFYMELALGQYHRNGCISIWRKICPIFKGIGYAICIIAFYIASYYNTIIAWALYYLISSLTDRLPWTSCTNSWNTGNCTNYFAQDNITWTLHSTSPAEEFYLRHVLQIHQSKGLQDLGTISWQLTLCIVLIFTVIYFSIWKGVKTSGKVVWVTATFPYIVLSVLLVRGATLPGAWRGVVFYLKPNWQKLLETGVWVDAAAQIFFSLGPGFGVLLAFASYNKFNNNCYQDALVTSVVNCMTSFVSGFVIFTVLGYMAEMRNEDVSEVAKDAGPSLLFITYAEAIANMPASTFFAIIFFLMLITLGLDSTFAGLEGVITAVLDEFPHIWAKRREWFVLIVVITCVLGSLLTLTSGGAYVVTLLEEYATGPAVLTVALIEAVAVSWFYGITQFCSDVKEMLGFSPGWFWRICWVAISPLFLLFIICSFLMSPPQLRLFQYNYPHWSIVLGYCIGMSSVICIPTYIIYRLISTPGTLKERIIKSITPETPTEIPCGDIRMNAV

In general, Ki refers to a measure of affinity in units of concentration, obtained from inhibition or displacement. Read a high Ki as lower affinity. For orientation: % inhibition means how much of the control response was suppressed. A high value points to a response far below the control. Take `CCCN(CCCc1c[nH]c2ccc(F)cc12)C1COc2ccc3ncccc3c2C1` (racemic): the Ki was found to be 16.9 nM in test [1] and 63.5 nM in test [3]. Further, the “% inhibition” value in test [2] was found to be 18%.
For `CCCN(CCCc1c[nH]c2ccc(F)cc12)C1COc2c(ccc3ncccc23)C1` (racemic), the Ki in test [1] is 12.4 nM; in test [4], 1234.3 nM. Moreover, the “% inhibition” value in test [5] is given as 46%.
`Fc1ccc2[nH]cc(CCCCNC3COc4c(ccc5ncccc45)C3)c2c1` (racemic): the inhibition constant Ki in test [1] is 1.5 nM. The “% inhibition” value in test [2] turned out to be 33%; in test [5] it was 47%.
Compound `Fc1ccc2[nH]cc(CCCNC3COc4ccc5ncccc5c4C3)c2c1` (racemic) had a Ki in test [4] of 324.2 nM.
`CCCN(CCc1c[nH]c2ccc(F)cc12)C1COc2ccc3ncccc3c2C1` (racemic): the Ki turned out to be 62.8 nM in test [1] and 711.2 nM in test [4].
Consider `CCCN(CCCCc1c[nH]c2ccc(F)cc12)C1COc2c(ccc3ncccc23)C1` (racemic), for which the “% inhibition” value in test [2] is listed as 19%; in test [5], 21%.
Regarding `Fc1ccc2[nH]cc(CCCNC3COc4c(ccc5ncccc45)C3)c2c1` (racemic), the inhibition constant (Ki) in test [1] amounted to 2.6 nM; in test [4], 489.5 nM; in test [3] it was 105 nM.
As to `COc1cccc2c1CC(NCCCc1c[nH]c3ccc(F)cc13)CO2` (racemic), the Ki was 9.2 nM in test [1], 772.5 nM in test [4] and 70.4 nM in test [3].
Consider `Fc1ccc2[nH]cc(CCNC3COc4ccc5ncccc5c4C3)c2c1` (racemic), for which the results for the Ki in test [1] and in test [4] were 30.5 nM and 1078.7 nM, respectively. Besides, the “% inhibition” value in test [5] amounted to 10%.
One may read the EC50 as the concentration at which the effect is half-maximal. Take `CCCN(CCCc1c[nH]c2ccc(F)cc12)C1COc2ccc3ncccc3c2C1` (single isomer, unassigned; (+)) [listing 1 of 2 here]: the Ki in test [1] was found to be 19.8 nM; in test [3] it was 58 nM. Besides, in test [2], the “% inhibition” value came to 38%. For the same compound, the EC50 in test [6] is 301 nM.
`Fc1ccc2[nH]cc(CCCNC3COc4c(ccc5ncccc45)C3)c2c1` (single isomer, unassigned; (+)) [listing 1 of 2 here]: the results for the Ki in test [1], in test [4] and in test [3] were 3 nM, 623.7 nM and 392 nM, respectively. Further, in test [6], the EC50 is 332 nM.
As a reminder, the Emax is the maximal effect, on the per cent scale that the assay sets. Turning to `CCCN(CCCc1c[nH]c2ccc(F)cc12)C1COc2ccc3ncccc3c2C1` (single isomer, unassigned; (+)) [listing 2 of 2 here], in test [7], the maximal effect (Emax) amounted to 100%.
The same measure, in the same setting: the same measure for `Fc1ccc2[nH]cc(CCCNC3COc4c(ccc5ncccc45)C3)c2c1` (single isomer, unassigned; (+)) [listing 2 of 2 here]: 75%.
With `Fc1ccc2[nH]cc(CCCNC3COc4ccc5ncccc5c4C3)c2c1` (single isomer, unassigned; (-)) [listing 1 of 2 here], the EC50 in test [6] turned out to be 116 nM. For the same compound, the Ki came to 221 nM in test [4] and 314 nM in test [3].
Regarding `Fc1ccc2[nH]cc(CCCNC3COc4c(ccc5ncccc45)C3)c2c1` (single isomer, unassigned; (-)) [listing 1 of 2 here], the Ki in test [1] came out at 1.2 nM; in test [4] it was 387.7 nM; in test [3], 67.8 nM. In addition, the EC50 in test [6] was found to be 172 nM.
As to `Fc1ccc2[nH]cc(CCCNC3COc4c(ccc5ncccc45)C3)c2c1` (single isomer, unassigned; (-)) [listing 2 of 2 here], in test [7], the maximal effect (Emax) is 100%.
As for `Fc1ccc2[nH]cc(CCCNC3COc4ccc5ncccc5c4C3)c2c1` (single isomer, unassigned; (-)) [listing 2 of 2 here], the Emax in test [7] came to 86%.
For the compound `Fc1ccc2[nH]cc(CCCNC3COc4ccc5ncccc5c4C3)c2c1` (stereo in doubt; (+)-5) [listing 1 of 2 here], the Ki amounted to 590.8 nM in test [4] and 23.9 nM in test [3].
`Fc1ccc2[nH]cc(CCCNC3COc4ccc5ncccc5c4C3)c2c1` (stereo in doubt; (+)-5) [listing 2 of 2 here]: the maximal response (Emax) in test [7] turned out to be 100%.
For `CCCN(CCCc1c[nH]c2ccc(F)cc12)C1COc2ccc3ncccc3c2C1` (stereo in doubt; (-)-6) [listing 1 of 2 here], the affinity in test [1], expressed as Ki, was 8.8 nM. Further, the “% inhibition” value in test [2] worked out at 31%.
As for `CCCN(CCCc1c[nH]c2ccc(F)cc12)C1COc2ccc3ncccc3c2C1` (stereo in doubt; (-)-6) [listing 2 of 2 here], the Emax in test [7] was found to be 55%.
